For one test, the system named is T-cell activation. Kind of test: T-cell activation cellular assay (MTT). Conditions: Table 4, 40 hr incubation. The test is classed as cell-based. How it is done:
(§1) Cellular assays were performed as follows:
(§2) Cell suspensions were prepared by harvesting cells from culture. Cell used in this test should be in later log phase growth and high viability. Cells were diluted in correct growth medium to 1.1× final concentration (from 50000 cell/ml to 200,000 cell/ml, depending on cell line). 90 μL was added to samples, diluted in PBS to 10× final concentration in flat-bottom 96-well plates (10 μL). After incubation for 40 hr in 37° C. 5% CO2 incubator, MTT 5 mg/ml (in PBS, filter sterile) 20 μl per well was added. The plates were returned to incubator for another 6 hours. Lysis Buffer (10% SDS, 0.01N HCl) 100 μl per well was added and the plate put back in incubator overnight. The plate was then read at 590 nm.

A further test concerns Jurkat. Kind of test: Jurkat cellular growth assay (MTT). The test is classed as cell-based. The settings on record: Table 4, inhibit 50% of cellular growth, 40 hr incubation. How it is done: as §1, §2
The subject of a further test is TSU. The test can be described thus: TSU cellular growth assay (MTT). The test is classed as cell-based. Conditions: Table 4, inhibit 50% of cellular growth, 40 hr incubation. How it is done: as §1, §2
The target of the next test is T1, JAK1 (Homo sapiens, UniProt P23458).
T1 construct: The kinase domain of humanJAK1 was amplified from U937mRNA; His tag (from pFastBac HTb vector; nickel chelate purification) (N); made in house; host or cells: baculovirus; virus made in Sf9, large-scale expression in High Five insect cells
Kind of test: JAK1 kinase domain capture-based ELISA kinase assay. The test is classed as biochemical. The settings on record: inhibit 50% of activity at 50 μM. In short, it runs like this: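 His-tagged human JAK1 kinase domain was expressed via baculovirus in High Five insect cells and purified on nickel chelate resin. Phosphotyrosine was quantified by ELISA with peroxidase-linked PY20 after capture on avidin plates.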

A further test concerns the target T2, JAK2 (Homo sapiens, UniProt O60674).
T2 construct: The kinase domain of humanJAK2 was amplified from U937mRNA; His tag (from pFastBac HTc vector; nickel chelate purification) (N); made in house; host or cells: baculovirus; virus made in Sf9, large-scale expression in High Five insect cells
Kind of test: JAK2 kinase domain capture-based ELISA kinase assay. The test is classed as biochemical. Conditions: inhibit 50% of activity at 50 μM. In short, it runs like this:
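His-tagged human JAK2 kinase domain was baculovirus-expressed in High Five insect cells and nickel-purified. Phosphotyrosine was captured on avidin plates and detected by ELISA with peroxidase-linked PY20.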

In the next test the target is T3, JAK3 (Homo sapiens, UniProt P52333).
T3 construct: The kinase domain of humanJAK3 was amplified from U937mRNA; His tag (from pFastBac HTb vector; nickel chelate purification) (N); made in house; host or cells: baculovirus; virus made in Sf9, large-scale expression in High Five insect cells
The test can be described thus: JAK3 kinase domain capture-based ELISA kinase assay. The format is biochemical. The settings on record: inhibit 50% of activity at 50 μM. The method, boiled down:
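The human JAK3 kinase domain was His-tagged, baculovirus-expressed in High Five cells and nickel-affinity purified. Tyrosine phosphorylation was quantified on avidin-coated ELISA plates with peroxidase-linked anti-phosphotyrosine antibody PY20.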
In general terms: In an ELISA, binding on a coated surface is turned into a signal by an enzyme label.

Another test has as its target T4, TYK2 (Homo sapiens, UniProt P29597).
T4 construct: The kinase domain of humanTYK2 was amplified from A549 mRNA; His tag (from pBlueBacHis2A vector; nickel chelate purification) (N); made in house; host or cells: baculovirus; virus made in Sf9, large-scale expression in High Five insect cells
T4 sequence (P29597 897-1176 limits assumed): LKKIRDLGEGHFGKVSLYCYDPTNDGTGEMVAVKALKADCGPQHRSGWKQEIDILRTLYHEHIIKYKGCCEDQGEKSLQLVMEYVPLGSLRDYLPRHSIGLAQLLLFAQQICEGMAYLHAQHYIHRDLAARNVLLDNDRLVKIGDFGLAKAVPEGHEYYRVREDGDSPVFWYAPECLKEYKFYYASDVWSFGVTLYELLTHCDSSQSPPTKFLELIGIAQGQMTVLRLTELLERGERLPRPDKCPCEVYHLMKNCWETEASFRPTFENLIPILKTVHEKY
The test can be described thus: TYK2 kinase domain capture-based ELISA kinase assay. The test is classed as biochemical. The settings on record: inhibit 50% of activity at 50 μM. In short, it runs like this: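 His-tagged human TYK2 kinase domain expressed in baculovirus-infected insect cells and Ni-affinity purified. Biotinylated peptide substrate (5 μM final); phosphotyrosine captured on avidin plate and detected by peroxidase-linked PY20 antibody ELISA.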

Structures are written as SMILES. Bounds are passed on as bounds.

T1 sequence (P23458 875-1153 limits assumed): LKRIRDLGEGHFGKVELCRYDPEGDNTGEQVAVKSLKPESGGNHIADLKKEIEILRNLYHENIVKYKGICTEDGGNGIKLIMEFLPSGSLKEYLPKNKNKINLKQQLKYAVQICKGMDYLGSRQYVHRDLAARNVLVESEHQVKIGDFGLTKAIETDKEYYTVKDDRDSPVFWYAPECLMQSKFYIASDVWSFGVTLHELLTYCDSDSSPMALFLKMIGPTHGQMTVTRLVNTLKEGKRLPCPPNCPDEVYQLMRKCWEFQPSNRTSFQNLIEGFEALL
T2 sequence (O60674 849-1124 limits assumed): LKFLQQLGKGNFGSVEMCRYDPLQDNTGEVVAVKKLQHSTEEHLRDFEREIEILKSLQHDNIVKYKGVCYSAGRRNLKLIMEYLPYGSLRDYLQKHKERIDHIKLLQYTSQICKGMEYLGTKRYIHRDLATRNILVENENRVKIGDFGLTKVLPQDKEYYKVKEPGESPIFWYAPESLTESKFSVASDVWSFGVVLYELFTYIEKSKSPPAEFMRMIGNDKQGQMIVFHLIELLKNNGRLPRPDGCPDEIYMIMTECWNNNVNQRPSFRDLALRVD
T3 sequence (P52333 822-1111 limits assumed): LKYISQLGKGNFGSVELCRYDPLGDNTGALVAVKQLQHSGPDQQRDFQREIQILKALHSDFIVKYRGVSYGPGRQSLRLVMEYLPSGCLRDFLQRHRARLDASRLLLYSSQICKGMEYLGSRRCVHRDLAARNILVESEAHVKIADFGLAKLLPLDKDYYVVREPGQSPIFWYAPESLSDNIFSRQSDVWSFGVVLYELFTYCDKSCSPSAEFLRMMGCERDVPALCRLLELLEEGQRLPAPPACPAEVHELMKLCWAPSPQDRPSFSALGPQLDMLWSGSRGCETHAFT

A word on the IC50: it is the point on the concentration scale where inhibition reaches its midpoint. Read a low IC50 as inhibition by little substance. Consider `COc1cncc(-c2cncc(NCC(C)(C)CO)n2)c1` [drawing 59], for which the IC50 with T-cell activation (T-cell, 40 h) was 15 µM; in the test on Jurkat (Homo sapiens, Jurkat, 40 h) it was 40 µM; with TSU, 40 µM.

On to `C[C@H](Nc1cncc(-c2cccc(CO)c2)n1)c1ccccc1` [drawing 58], for which the IC50 in the test on T-cell activation (T-cell, 40 h) was 20 µM; in the test with Jurkat (Homo sapiens, Jurkat, 40 h), 20 µM; with TSU, 15 µM.

With `CC(=O)Nc1cccc(-c2cncc(NCc3cccc(Cl)c3)n2)c1` [drawing 60], the IC50 in the test with T-cell activation (T-cell, 40 h) worked out at 30 µM; in the test on Jurkat (Homo sapiens, Jurkat, 40 h) it was 40 µM; in the test with TSU, 5 µM.

For `COc1cc(-c2cncc(N[C@@H](C)c3ccccc3)n2)cc(OC)c1OC` [drawing 57], the IC50 came to 12 µM with T-cell activation (T-cell, 40 h); 35 µM in the test on Jurkat (Homo sapiens, Jurkat, 40 h); 10 µM in the test with TSU.

With `COc1cc(-c2cncc(N[C@@H](C)c3ccccc3)n2)cc(OC)c1OC` [drawing 55], the IC50 in the test with T-cell activation was 10 µM; in the test with Jurkat, 20 µM; with TSU, 10 µM.

`COc1cc(-c2cncc(NCc3ccccc3)n2)cc(OC)c1OC` [drawing 56]: the IC50 amounted to 15 µM in the test with T-cell activation (T-cell, 40 h); 20 µM in the test with Jurkat (Homo sapiens, Jurkat, 40 h); 10 µM in the test with TSU.

For `COc1cncc(-c2cncc(N[C@@H](C)c3ccccc3)n2)c1` [drawing 54], the IC50 was determined as 15 µM in the test on T-cell activation (T-cell, 40 h); 50 µM with Jurkat (Homo sapiens, Jurkat, 40 h); 20 µM in the test on TSU.

Consider `COc1cncc(-c2cncc(NCc3ccc(F)cc3)n2)c1` [drawing 53], for which the IC50 in the test with T-cell activation (T-cell, 40 h) worked out at 30 µM; with Jurkat (Homo sapiens, Jurkat, 40 h), 50 µM; in the test on TSU, 50 µM.

In the case of `COc1cncc(-c2cncc(NCC(C)(C)CO)n2)c1` [CYT21103], the IC50 against JAK1 (Table 3), against JAK2 (Table 3), on JAK3 (Table 3) and on TYK2 (Table 3) was < 50 µM each time.

For the molecule `Brc1cn2ccnc2c(Nc2ccc(N3CCOCC3)cc2)n1` [drawing 82], the IC50 against JAK1 (Table 5), on JAK2 (Table 5), against JAK3 (Table 5) and at TYK2 (Table 5) was < 50 µM in each case.

Consider `CCCC/C=C/c1cn2ccnc2c(Nc2cccc(OCC(=O)N(C)C)c2)n1`, for which the IC50 against JAK1 (Table 5), at JAK2 (Table 5), against JAK3 (Table 5) and on TYK2 (Table 5) was < 50 µM throughout.

Consider `COc1cncc(-c2cncc(NCc3ccc(F)cc3)n2)c1` [CYT24108], for which the concentration for half-maximal inhibition (IC50) on JAK1 (Table 3), against JAK2 (Table 3), at JAK3 (Table 3) and against TYK2 (Table 3) was < 50 µM in each case.

With `COc1ccccc1-c1cn2ccnc2c(Nc2ccc(N3CCOCC3)cc2)n1`, the 50% inhibitory concentration (IC50) against JAK1 (Table 6) was < 50 µM; against JAK2 (Table 6), < 50 µM; at JAK3 (Table 6), > 50 µM; against TYK2 (Table 6), < 50 µM.

In the case of `c1ccc(Nc2nc(-c3cccnc3)cn3ccnc23)cc1`, the IC50 on JAK1 (Table 6), on JAK2 (Table 6), at JAK3 (Table 6) and against TYK2 (Table 6) was < 50 µM each time.

Turning to `COc1cc(-c2cn3ccnc3c(N[C@@H]3CCN(Cc4ccccc4)C3)n2)cc(OC)c1OC`, the IC50 against JAK1 (Table 5), against JAK2 (Table 5), on JAK3 (Table 5) and at TYK2 (Table 5) was < 50 µM in each case.

With `CCCC/C=C/c1cn2ccnc2c(Nc2ccc(N(CC)CCO)cc2)n1`, the IC50 against JAK1 (Table 6), on JAK2 (Table 6), against JAK3 (Table 6) and at TYK2 (Table 6) was < 50 µM each time.

The values are drawn from US20060069084A1, “Methods of inhibiting kinases” (priority 2001, published 2006).
